Active and inactive are the calls of the source.
How the values were obtained:
[1] = molecular target: T1, Microphthalmia-associated transcription factor (Homo sapiens, UniProt O75030); test: TRPM1 promoter luciferase signal decrease, dose response, MITF inhibitor project, cell-based, SK-MEL-5, cherry-picked, set 3 (AID 493073); type: functional
T1 sequence (O75030 whole entry): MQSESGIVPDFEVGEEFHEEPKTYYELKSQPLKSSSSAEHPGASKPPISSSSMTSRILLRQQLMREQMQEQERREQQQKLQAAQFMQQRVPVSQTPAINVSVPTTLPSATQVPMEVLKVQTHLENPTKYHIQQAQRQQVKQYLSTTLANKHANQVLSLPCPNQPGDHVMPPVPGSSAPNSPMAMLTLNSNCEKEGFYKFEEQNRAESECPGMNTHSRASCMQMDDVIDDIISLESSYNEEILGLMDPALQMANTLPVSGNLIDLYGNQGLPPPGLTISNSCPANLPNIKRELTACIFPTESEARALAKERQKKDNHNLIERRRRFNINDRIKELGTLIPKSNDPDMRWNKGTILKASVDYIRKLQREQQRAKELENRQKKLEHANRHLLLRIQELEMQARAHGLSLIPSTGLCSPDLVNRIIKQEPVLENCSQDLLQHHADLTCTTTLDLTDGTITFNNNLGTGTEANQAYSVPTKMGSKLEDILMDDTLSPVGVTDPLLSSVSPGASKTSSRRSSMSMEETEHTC

[2] = molecular target: Cytochrome P450 3A4 (Homo sapiens, UniProt P08684); settings: Potency;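 also: confirmatory qHTS run detecting inhibitors and substrates of CYP3A4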
[3] = test system: Vero; test: cells; type: functional; settings: Chlorocebus sabaeus
[4] = molecular target: Heat shock protein HSP 90-alpha (Homo sapiens, UniProt P07900); type: functional, organism-based
[5] = Shn3 3'UTR reporter inhibitors, dose response, cell-based, Clone20 osteoblasts, firefly luciferase, cherry-picked (AID 624132); type: functional;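 also: firefly luciferase luminescence from reporter carrying the Shn3 3'UTR in osteoblasts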
[6] = control 3'UTR Renilla luciferase suppression, dose response, counter-screen for Shn3 inhibitor project, cell-based, Clone20-Shn3RL, cherry-picked (AID 624133); type: functional
[7] = HepG2 cell cytotoxicity, dose response, cytotoxicity control for Shn3 inhibitor project, CellTiter-Glo, cherry-picked (AID 624134); type: functional, cell-based
[8] = inhibitors of clade B AD8 Env fusion, dose response, cell-based, cherry-pick (AID 652062); type: functional;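 also: luciferase signal from cell-cell fusion driven by HIV-1 clade B AD8 Env; potency is for inhibitors of fusion seen as a drop in luminescence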
[9] = molecular target: Eukaryotic translation initiation factor 4E (Mus musculus, UniProt P63073); test: eIF4E–eIF4G protein interaction inhibitors, dose response, biochemical, TR-FRET (AID 855); type: functional;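 also: potency for disrupting eIF4E binding to eIF4GI seen as loss of FRET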
[10] = molecular target: Nonstructural protein 1 (Influenza A virus, UniProt Q194T2); type: functional, Influenza A virus (A/California/07/2009(H1N1))
[11] = molecular target: Glyceraldehyde-3-phosphate dehydrogenase (Homo sapiens, UniProt P04406)
[12] = molecular target: T2, Long-chain-fatty-acid--AMP ligase FadD28 (Mycobacterium tuberculosis, UniProt P9WQ59); test: Fluorescence polarization aasay to screen for inhibitors that compete for the binding of FadD28 to a bisubstrate Measured in Biochemical System Using Plate Reader - 2147-01_Inhibitor_Dose_CherryPick_Activity.; type: functional, Mycobacterium tuberculosis H37Rv
T2 sequence (P9WQ59 whole entry): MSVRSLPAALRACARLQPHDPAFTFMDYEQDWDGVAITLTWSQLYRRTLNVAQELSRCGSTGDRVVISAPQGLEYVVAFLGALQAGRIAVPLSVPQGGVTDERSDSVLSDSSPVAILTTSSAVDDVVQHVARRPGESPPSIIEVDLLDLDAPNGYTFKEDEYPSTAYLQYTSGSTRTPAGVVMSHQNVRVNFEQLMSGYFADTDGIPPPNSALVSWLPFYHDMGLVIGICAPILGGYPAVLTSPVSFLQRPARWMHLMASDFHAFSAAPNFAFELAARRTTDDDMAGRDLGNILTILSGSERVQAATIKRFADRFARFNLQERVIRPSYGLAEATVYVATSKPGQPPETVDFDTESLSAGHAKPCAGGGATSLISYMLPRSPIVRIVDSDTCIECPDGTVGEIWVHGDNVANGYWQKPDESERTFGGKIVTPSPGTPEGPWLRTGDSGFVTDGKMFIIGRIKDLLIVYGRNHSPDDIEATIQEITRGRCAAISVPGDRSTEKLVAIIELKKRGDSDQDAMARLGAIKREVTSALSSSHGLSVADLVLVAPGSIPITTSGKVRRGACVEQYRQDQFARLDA

[13] = growth suppression of PTEN-null colon cells, dose response, cell-based, HCT116 PTEN knockout (AID 1047); type: functional;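 also: HCT116 colon tumor cells with PTEN knocked out; cells exposed to compound for 60 hours before readout; potency for loss of cell viability measured by luminescence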
[14] = test system: HEK293; test: cells; type: functional, cell-based; settings: Homo sapiens
[15] = test system: HEK293; test: NOD1 signaling inhibitors, primary screen, cell-based, luminescence, uHTS (AID 1578); type: functional; settings: Homo sapiens
[16] = test system: HEK293; test: cells; type: functional, cell-based; settings: Homo sapiens; remark: listed apart in the source
[17] = test system: HEK293; test: NOD2 signaling inhibitors in MDP-stimulated cells, cell-based, uHTS, luminescence (AID 2001); type: functional; settings: Homo sapiens
[18] = growth suppression of beta-catenin-knockout colon cells, dose response, cell-based, HCT116, human colon tumor (AID 1045); type: functional;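 also: HCT116 colon tumor cells with beta catenin knocked out; cells exposed to compound for 60 hours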
[19] = molecular target: Luciferin 4-monooxygenase (Photinus pyralis, UniProt P08659); test: firefly luciferase enzyme inhibitors, dose response, biochemical, luminescence (AID 1891)
[20] = Luminescence Cell-Based Dose Confirmation HTS to Identify Inhibitors of Platelet Dense Granule Release. [Related pubchem assays: 1663 (Primary HTS), 1678 (Summary of Project)]; type: functional
[21] = cells; type: functional, cell-based
[22] = cells; type: functional, cell-based; remark: listed apart in the source
[23] = test system: INS1; test: beta cell apoptosis inhibitors, cytokine rescue, dose response, luminescence, retest (AID 449756); type: functional, cell-based; settings: Rattus norvegicus;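 also: cell death triggered by IL-1 beta plus TNF-alpha plus IFN-gamma mixture; protective hits raise ATP signal compared with cytokine alone wells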
[24] = molecular target: Genome polyprotein (dengue virus type 2, UniProt P29990); test: Dengue-2 NS5 methyltransferase inhibitors, primary screen, biochemical, confirmation dose response (AID 588689); type: functional
[25] = molecular target: T3, Cytochrome P450 1A2 (Homo sapiens, UniProt P05177);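 also: PubChem cytochrome P450 panel assay, CYP1A2 panel member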
T3 sequence (P05177 whole entry): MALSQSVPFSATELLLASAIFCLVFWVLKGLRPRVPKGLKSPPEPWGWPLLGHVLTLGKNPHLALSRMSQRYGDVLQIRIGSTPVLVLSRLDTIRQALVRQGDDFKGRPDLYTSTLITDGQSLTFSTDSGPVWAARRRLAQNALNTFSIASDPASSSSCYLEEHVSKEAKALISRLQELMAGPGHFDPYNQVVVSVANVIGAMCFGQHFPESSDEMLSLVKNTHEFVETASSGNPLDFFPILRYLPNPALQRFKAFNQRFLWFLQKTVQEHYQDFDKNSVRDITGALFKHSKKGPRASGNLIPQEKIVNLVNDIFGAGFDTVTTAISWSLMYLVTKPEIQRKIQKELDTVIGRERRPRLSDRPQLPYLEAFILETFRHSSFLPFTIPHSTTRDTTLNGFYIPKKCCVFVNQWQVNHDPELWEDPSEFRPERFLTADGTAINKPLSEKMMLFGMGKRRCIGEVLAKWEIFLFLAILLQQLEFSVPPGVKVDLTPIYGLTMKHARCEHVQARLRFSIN

[26] = molecular target: Paired box protein Pax-8 (Homo sapiens, UniProt Q06710); test: inhibitors of PAX8-driven TPO luciferase reporter, dose response, RMG-I cells, cherry-pick (AID 687027); type: functional, cell-based;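 also: luciferase reporter driven by Pax8 target thyroperoxidase promoter measured by SteadyGlo luminescence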
[27] = inhibitors of HIV Env-driven cell fusion, dose response, cherry-pick (AID 652057); type: functional, cell-based
[28] = THP-1 cell cytotoxicity, dose response, cytotoxicity control for non-replicating M. tuberculosis project (AID 489025); type: functional
[29] = Vero E6 cell cytotoxicity, dose response, cytotoxicity control for non-replicating M. tuberculosis project, secondary assay (AID 492998); type: functional, VeroE6; settings: Vero C1008
[30] = cells; type: functional
[31] = molecular target: T4, Sentrin-specific protease 8 (Homo sapiens, UniProt Q96LD8); type: functional
T4 sequence (Q96LD8 whole entry): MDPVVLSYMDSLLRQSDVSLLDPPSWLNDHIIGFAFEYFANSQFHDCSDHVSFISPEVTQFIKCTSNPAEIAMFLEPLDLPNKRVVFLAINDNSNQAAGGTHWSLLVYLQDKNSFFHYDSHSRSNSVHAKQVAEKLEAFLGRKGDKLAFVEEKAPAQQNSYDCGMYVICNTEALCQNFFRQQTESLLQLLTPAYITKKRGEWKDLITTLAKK

[32] = molecular target: T4, Sentrin-specific protease 8; type: functional; remark: listed apart in the source

## CC(C)N1C/C(=C/c2cccnc2)C(=O)/C(=C/c2cccnc2)C1
[1]
  AC50: 14.2 µM (active)

## CC(=O)Nc1ccc(C2C(C)CCC3C(=O)N4C(CCC(C)[C@@H]4c4ccc(NC(C)=O)cc4)C(=O)N32)cc1 (some centres undefined)
[2]
  AC50: 3.16 µM (inconclusive)

## N#Cc1c(NCCN)nc(-c2ccccc2)c2c1CCCC2
[3]
  CC50: 16.4 µM (active)

## O=S(=O)(Nc1nc2ccccc2nc1N1CCN(c2ccccn2)CC1)c1ccc(Cl)cc1
[4]
  AC50: 6.23 µM (active)

## COc1cc2ccnc(Cc3cccc(OC)c3OC)c2cc1OC
[5]
  AC50: 4.64 µM (active)
[6]
  AC50: 5.35 µM (active)
[7]
  AC50: 40.7 µM (active)

## O=C1Nc2ccc(Br)cc2/C1=C/C1CC=CCC1 (centres undefined)
[4]
  AC50: 8.03 µM (active)

## CCC(NCc1ccc(F)cc1)=C1C(=O)N(C)C(=O)N(C)C1=O
[8]
  AC50: 12.2 µM (active)

## CCNCC(O)COCC(O)CNCC (centres undefined)
[9]
  IC50: > 64 µM (inactive)

## Cc1ccc(S(=O)(=O)CCC(=O)NCc2ccccc2Cl)cc1
[9]
  IC50: > 64 µM (inactive)

## O=C(Nc1nc(-c2ccccn2)cs1)C1COc2ccccc2O1 (centres undefined)
[10]
  IC50: 10.7 µM (active)
[3]
  CC50: 10 µM (active)
[5]
  AC50: 5.81 µM (active)
[4]
  AC50: 5.85 µM (active)
[6]
  AC50: 4.69 µM (active)
[7]
  AC50: 47.6 µM (active)

## O=C(O)CS(=O)(=O)c1ccc(-c2ccc(S(=O)(=O)CC(=O)O)cc2)cc1
[11]
  IC50: > 100 µM (not active)

## CCCn1c(-c2ccc(F)cc2)nc2c(NC3CC4CCC(C3)N4C)nc(C)nc21 (centres undefined)
[2]
  AC50: 15.8 µM (inconclusive)

## COc1ccc(C(=O)Cn2nnc(-c3ccccc3F)n2)cc1
[12]
  AC50: > 100 µM (inactive)

## CCOc1cc(C=C(C(=O)OC)C(=O)OC)ccc1OCc1ccc([N+](=O)[O-])cc1
[13]
  EC50: 18 µM (active)
[14]
  IC50: > 20 µM (inactive)
[15]
  EC50: 11.9 µM (active)
[16]
  IC50: 3.72 µM (active)
[17]
  IC50: 5.8 µM (active)
[18]
  EC50: 16.9 µM (active)

## COc1ccc(CNC(=O)c2cc3c(C)nc4ccccc4c3o2)c(OC)c1
[19]
  EC50: > 112 µM (not active)
[20]
  EC50: > 112 µM (not active)
[5]
  AC50: 3.22 µM (active)
[6]
  AC50: 2.47 µM (active)
[7]
  AC50: 3.5 µM (active)

## Cc1nc(N2CCOCC2)c2nc(-c3ccccc3)n(CCN3CCOCC3)c2n1
[2]
  AC50: 10 µM (inconclusive)

## CCCCNc1nc(C)nc2c1nc(-c1ccccc1)n2CCN(C)C
[2]
  AC50: 15.8 µM (inconclusive)

## COc1ccc(C(NC(C)=O)c2ccc3cccnc3c2O)c(OC)c1 (centres undefined)
[21]
  EC50: > 350 µM (not active)
[22]
  EC50: 8.62 µM (active)
[1]
  AC50: 5.15 µM (active)
[23]
  AC50: 1.09 µM (active)
[5]
  AC50: 1.74 µM (active)
[6]
  AC50: 2.16 µM (active)
[7]
  AC50: 2.68 µM (active)

## Oc1c(CN2CCOCC2)cc(CN2CCOCC2)c(O)c1O
[24]
  IC50: 15.2 µM (active)

## O=C(O)c1ccccc1C(=O)Nc1nccs1
[25]
  AC50: 15.8 µM (inconclusive)
[9]
  IC50: > 64 µM (inactive)

## Cc1nn(-c2ccccc2)c(C)c1C(=O)OC(C)C(=O)NC1CCCCC1 (centres undefined)
[5]
  AC50: 8.19 µM (active)
[6]
  AC50: 25.8 µM (active)
[7]
  AC50: 41.8 µM (active)

## Nc1nc(N)c2cc(S(=O)(=O)c3cccc(C(F)(F)F)c3)ccc2n1
[5]
  AC50: 5.22 µM (active)
[6]
  AC50: 16.9 µM (active)
[7]
  AC50: 5.52 µM (active)

## C[C@@H]1CN([C@@H](C)CO)C(=O)c2cc(NC(=O)c3ccccc3)ccc2O[C@@H](C)CCCCO[C@H]1CN(C)Cc1ccc(C(F)(F)F)cc1
[26]
  AC50: 10.1 µM (active)

## C[C@@H]1CN([C@@H](C)CO)C(=O)Cc2cc(N(C)C)ccc2O[C@H]1CN(C)Cc1ccc(Oc2ccccc2)cc1
[26]
  AC50: 11 µM (active)

## COc1ccc(NC(=O)Nc2ccc3c(c2)C(=O)N([C@H](C)CO)C[C@H](C)[C@H](CN(C)S(=O)(=O)c2ccc(C)cc2)O3)cc1
[27]
  AC50: 3.61 µM (active)
[8]
  AC50: 11.2 µM (active)

## COc1cc(C(=O)OC2CC[C@]3(C)C4CCC5[C@]6(O)CC(O)[C@]7(O)C(CN8CC(C)CCC8[C@]7(C)O)[C@]6(O)C[C@@]53O[C@]24O)cc(OC)c1OC (some centres undefined)
[2]
  AC50: 20 µM (inconclusive)

## Cc1ccc(-c2nn(-c3ccccc3)cc2/C=N/NC(=O)c2ccncc2)o1
[28]
  CC50: 32.8 µM (active)
[29]
  CC50: > 20 µM (active)
[30]
  IC50: 0.22 µM (active)

## O=[N+]([O-])c1ccc(/C=N/c2ccc(Cl)c([N+](=O)[O-])c2)s1
[31]
  IC50: 3.07 µM (active)
[32]
  IC50: 2.35 µM (active)
[4]
  AC50: 2.99 µM (active)

## O=C(/C=C/c1ccco1)c1ccccc1O
[9]
  IC50: 50 µM (inactive)

## O=C(/C=C/c1ccccc1)c1ccc(O)cc1O [2',4'-DIHYDROXYCHALCONE]
[2]
  AC50: 1.58 µM (inconclusive)

## O=c1cc(-c2ccccc2)oc2c(O)c(O)ccc12 [7,8-DIHYDROXYFLAVONE]
[2]
  AC50: 39.8 µM (inconclusive)

## O=C1C=C(O)C(=O)c2ccccc21 [LAWSONE]
[2]
  AC50: 25.1 µM (inconclusive)
